In publication PMC11418212, “Characterization of four structurally diverse inhibitors of SUR2-containing KATP channels” (Channels, 2024):
Several values for one entry are separate records, joined by “and”; a condition that tells them apart may be missing. Identical values can stand only once. Entries after “also recorded” stand apart in the source; their conditions may differ. Like-named read-outs stand apart in the source and are kept apart here.

How the values were obtained:
Assay type in all cases: cell-based
[1] = target: T1, Kir6.1/SUR2B (Homo sapiens, UniProt O60706); test: Quantitative thallium flux assay, inhibition, stably transfected T-REx-HEK293 cells
T1 construct: expressed in transfected cells; Kir6.1 tetracycline-inducible, SUR2B constitutive

[2] = target: Kir6.2/SUR1 (Homo sapiens, UniProt Q09428); test: as above; settings: for Effect on Kir6.2/SUR1 channel activity: VU0071063 activation or ATP depletion, full range of doses tested (up to 30 µM); for IC50 / IC50 Kir6.2/SUR1, ATP depletion / IC50 Kir6.2/SUR1, VU0071063 activation: thallium flux; for IC50 / IC50 Kir6.2/SUR1, ATP depletion: ATP depletion with sodium cyanide and 2-deoxy-glucose; for IC50 Kir6.2/SUR1, VU0071063 activation: in the presence of 10 uM VU0071063
Experimental: Briefly, T-Rex-HEK293 cells underwent co-transfection with pcDNA5/TO-Kir6.1 or pcDNA5/TO-Kir6.2 (inducible expression) and pcDNA3.1-SUR2B or pcDNA3.1-SUR1 (constitutive expression) using Lipofectamine LTX following the manufacturer’s instructions and were then subjected to selection with antibiotics. Monoclonal cell lines were established through limiting dilution and characterization in thallium flux assays described below. […] KATP channel selectivity assays were performed in HEK293 cells transiently transfected with the indicated subunit using Lipofectamine LTX. The cells were incubated for 48 h after transfection before performing thallium flux assays.
Thallium flux assays were conducted using the established methods. Stably transfected T-REx-HEK-293 cells expressing Kir6.2/SUR1 or Kir6.1/SUR2B were cultured overnight in polyamine-coated plates (black-walled, clear-bottomed; BD, Bedford, MA) at a density of 20,000 cells in 20 µl per well of cell culture media. The expression of Kir6.2/SUR1 or Kir6.1/SUR2B channels was induced by treating cells with 1 µg/ml tetracycline overnight. The following day, cells were rinsed with an assay buffer (Hanks’ Balanced Salt Solution supplied with 20 mM HEPES), loaded with the thallium-sensor dye Brilliant Thallos-AM AM (Ion Bioscience, San Marcos, TX) for 1 h, and then washed again with assay buffer to remove unincorporated dye. […] To activate KATP channels independent of activators with ATP-depletion method, cells were treated with a cocktail of metabolic inhibitors (2.5 mM sodium cyanide and 20 mM 2-deoxy glucose) for 25 min before imagine. Control and test compounds diluted freshly from DMSO stocks into assay buffer were added to wells for four minutes before adding 0.5 mM chloride-free thallium stimulus buffer (Ion Bioscience) to initiate thallium flux through the expressed KATP channels. Thallium flux was recorded from all 384-wells for 2 min before terminating the experiment. […] Selectivity assays against other Kir channels were performed as described previously.
The kinetic fluorescence measurements (F) from each well were normalized to the initial reading (F0), producing static ratios (F/F0) that adjust for variations in cell count and dye uptake. […] The response (maxmin2) was determined by subtracting the min value from the max value. Percent inhibition was calculated by normalizing each well’s response to the positive and negative controls. Concentration–response curves were fitted using a single-site, four-parameter logistic function in Prism version 4.0 (GraphPad Software Inc., San Diego, CA) to calculate the half-maximal inhibitory concentration (IC50). Statistical comparisons of IC50 values were performed using an extra sum-of-squares F test and the Mann–Whitney test. A p-value of less than 0.05 was considered statistically significant.

[3] = target: T1, Kir6.1/SUR2B; test: Whole-cell patch clamp electrophysiology, T-Rex-HEK293-Kir6.1/SUR2B cells; settings: 10 µM compound in continued presence of pinacidil (1 μM in Figure 2)
Experimental: Whole-cell patch clamp electrophysiology experiments were conducted as described previously. Briefly, stably transfected T-Rex-HEK293 cells expressing Kir6.1/SUR2B were seeded at a density of 250,000 cells per 35-mm dish coated with tissue culture-treated polystyrene and incubated at 37°C in a 5% CO2 atmosphere. Whole-cell patch-clamp experiments were initiated 48 h post-seeding. On the day of the experiment, cells were dissociated and seeded onto poly-L-lysine-coated glass coverslips, where they were allowed to recover for at least one hour in a 37°C/5% CO2 incubator prior to the recordings. Patch pipettes with resistances of 2 to 3 MΩ were employed, containing an internal solution composed of 130 mM KCl, 2 mM MgCl2, 1 mM EGTA, 20 mM HEPES-free acid, and 1 mM Na2ADP, adjusted to pH 7.3 with KOH and an osmolarity of 275 mOsmol/kg with sucrose. The extracellular solution consisted of 135 mM NaCl, 5 mM KCl, 2 mM CaCl2, 1 mM MgCl2, 5 mM glucose, and 10 mM HEPES-free acid adjusted to pH 7.4 with NaOH. Test compounds were initially diluted in DMSO before being further diluted into the bath solution, maintaining a final DMSO concentration of less than 0.1% v/v. Recordings of macroscopic currents were conducted in a voltage-clamp setup using an Axopatch 200B Amplifier (Molecular Devices, Sunnyvale, CA), with data sampled at 5 kHz and low-pass filtered at 1 kHz. A ramp protocol was used to generate current–voltage curve relationships. The voltage protocol involved holding the cells at −75 mV, followed by a 200-msec step to −120 mV, a linear ramp to 120 mV over 240 msec at a rate of […], maintaining at 120 mV for 15 msec, and finally stepping back to −120 mV for 100 msec, with this sequence repeated every 5 seconds. […] All data acquisition and analyses were performed using pClamp software version 9.2 (Molecular Devices).
Gold-standard voltage-clamp electrophysiology was used to confirm the inhibitory effects of VU0212387, VU0543336, VU0605768, and VU0544086 on Kir6.1/SUR2B channel activity (Figure 2a–d).
Figure 2. Confirmation of VU0212387, VU0543336, VU0605768, or VU0544086-dependent inhibition of Kir6.1/SUR2B with patch clamp electrophysiology. […] VU compounds tested were (a) VU0212387, (b) VU0543336, (c) VU0605768, or (d) VU0544086. Data mean ± SD current density (n = 3).

[4] = ATP depletion with sodium cyanide and 2-deoxy-glucose, read-out: IC50 Kir6.1/SUR2B, ATP depletion
[5] = channels activated with 10 µM pinacidil, read-out: IC50 Kir6.1/SUR2B, pinacidil activation

Kir6.2/SUR1, sequence (Q09428 whole entry, species assumed): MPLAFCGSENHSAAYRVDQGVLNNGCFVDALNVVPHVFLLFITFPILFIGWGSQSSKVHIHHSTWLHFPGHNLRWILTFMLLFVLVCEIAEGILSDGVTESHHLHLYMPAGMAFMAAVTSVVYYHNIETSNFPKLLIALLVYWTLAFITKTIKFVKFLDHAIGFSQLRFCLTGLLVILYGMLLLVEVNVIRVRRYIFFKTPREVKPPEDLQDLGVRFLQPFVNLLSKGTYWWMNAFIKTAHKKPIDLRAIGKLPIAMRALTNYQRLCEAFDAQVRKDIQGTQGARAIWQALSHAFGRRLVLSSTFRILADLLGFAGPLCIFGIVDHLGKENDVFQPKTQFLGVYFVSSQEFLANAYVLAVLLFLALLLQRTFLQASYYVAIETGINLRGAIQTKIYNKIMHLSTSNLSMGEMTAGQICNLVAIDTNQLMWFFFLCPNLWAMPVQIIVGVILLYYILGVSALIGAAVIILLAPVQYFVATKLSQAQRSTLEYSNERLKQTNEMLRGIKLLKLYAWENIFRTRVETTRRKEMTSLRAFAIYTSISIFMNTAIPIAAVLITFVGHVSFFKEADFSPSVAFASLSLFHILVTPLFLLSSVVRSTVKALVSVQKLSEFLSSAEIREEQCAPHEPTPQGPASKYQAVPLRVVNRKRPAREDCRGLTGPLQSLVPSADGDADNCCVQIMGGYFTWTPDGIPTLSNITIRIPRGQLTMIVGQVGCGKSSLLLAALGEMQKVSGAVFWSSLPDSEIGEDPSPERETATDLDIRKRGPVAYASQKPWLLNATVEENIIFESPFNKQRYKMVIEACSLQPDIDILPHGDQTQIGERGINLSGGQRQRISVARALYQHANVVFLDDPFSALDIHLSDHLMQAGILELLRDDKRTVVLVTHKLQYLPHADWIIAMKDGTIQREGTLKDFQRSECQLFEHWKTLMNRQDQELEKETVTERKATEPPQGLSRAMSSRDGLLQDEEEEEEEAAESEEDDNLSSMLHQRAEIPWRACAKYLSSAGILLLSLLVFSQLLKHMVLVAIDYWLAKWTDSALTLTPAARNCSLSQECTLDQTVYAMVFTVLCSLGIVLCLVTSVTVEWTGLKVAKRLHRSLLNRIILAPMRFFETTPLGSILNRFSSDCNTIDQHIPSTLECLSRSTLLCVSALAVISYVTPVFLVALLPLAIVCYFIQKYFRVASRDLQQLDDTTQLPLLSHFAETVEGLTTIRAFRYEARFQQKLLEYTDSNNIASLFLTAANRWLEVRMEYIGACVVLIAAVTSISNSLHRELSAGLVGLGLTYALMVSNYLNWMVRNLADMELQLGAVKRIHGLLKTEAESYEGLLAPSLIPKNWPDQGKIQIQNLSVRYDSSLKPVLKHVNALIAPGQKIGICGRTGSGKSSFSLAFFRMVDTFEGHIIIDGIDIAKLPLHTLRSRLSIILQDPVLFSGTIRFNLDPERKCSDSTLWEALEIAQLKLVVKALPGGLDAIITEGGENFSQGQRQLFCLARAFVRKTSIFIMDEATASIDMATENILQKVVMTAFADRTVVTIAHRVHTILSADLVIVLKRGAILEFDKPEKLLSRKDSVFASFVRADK
Kir6.2/SUR1, sequence (Q14654 whole entry partner, species assumed): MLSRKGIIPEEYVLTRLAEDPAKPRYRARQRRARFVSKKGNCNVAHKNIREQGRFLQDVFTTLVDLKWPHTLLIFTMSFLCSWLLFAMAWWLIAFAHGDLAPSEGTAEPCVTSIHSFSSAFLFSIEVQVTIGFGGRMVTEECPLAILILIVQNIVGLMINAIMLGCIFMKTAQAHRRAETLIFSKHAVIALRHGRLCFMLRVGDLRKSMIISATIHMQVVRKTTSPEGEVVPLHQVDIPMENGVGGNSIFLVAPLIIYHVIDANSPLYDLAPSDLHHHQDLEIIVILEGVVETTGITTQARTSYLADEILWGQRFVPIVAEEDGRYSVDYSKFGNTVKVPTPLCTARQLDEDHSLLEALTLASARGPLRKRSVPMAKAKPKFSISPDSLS
T1 sequence (O60706 1-1549 isoform O60706-2, species assumed): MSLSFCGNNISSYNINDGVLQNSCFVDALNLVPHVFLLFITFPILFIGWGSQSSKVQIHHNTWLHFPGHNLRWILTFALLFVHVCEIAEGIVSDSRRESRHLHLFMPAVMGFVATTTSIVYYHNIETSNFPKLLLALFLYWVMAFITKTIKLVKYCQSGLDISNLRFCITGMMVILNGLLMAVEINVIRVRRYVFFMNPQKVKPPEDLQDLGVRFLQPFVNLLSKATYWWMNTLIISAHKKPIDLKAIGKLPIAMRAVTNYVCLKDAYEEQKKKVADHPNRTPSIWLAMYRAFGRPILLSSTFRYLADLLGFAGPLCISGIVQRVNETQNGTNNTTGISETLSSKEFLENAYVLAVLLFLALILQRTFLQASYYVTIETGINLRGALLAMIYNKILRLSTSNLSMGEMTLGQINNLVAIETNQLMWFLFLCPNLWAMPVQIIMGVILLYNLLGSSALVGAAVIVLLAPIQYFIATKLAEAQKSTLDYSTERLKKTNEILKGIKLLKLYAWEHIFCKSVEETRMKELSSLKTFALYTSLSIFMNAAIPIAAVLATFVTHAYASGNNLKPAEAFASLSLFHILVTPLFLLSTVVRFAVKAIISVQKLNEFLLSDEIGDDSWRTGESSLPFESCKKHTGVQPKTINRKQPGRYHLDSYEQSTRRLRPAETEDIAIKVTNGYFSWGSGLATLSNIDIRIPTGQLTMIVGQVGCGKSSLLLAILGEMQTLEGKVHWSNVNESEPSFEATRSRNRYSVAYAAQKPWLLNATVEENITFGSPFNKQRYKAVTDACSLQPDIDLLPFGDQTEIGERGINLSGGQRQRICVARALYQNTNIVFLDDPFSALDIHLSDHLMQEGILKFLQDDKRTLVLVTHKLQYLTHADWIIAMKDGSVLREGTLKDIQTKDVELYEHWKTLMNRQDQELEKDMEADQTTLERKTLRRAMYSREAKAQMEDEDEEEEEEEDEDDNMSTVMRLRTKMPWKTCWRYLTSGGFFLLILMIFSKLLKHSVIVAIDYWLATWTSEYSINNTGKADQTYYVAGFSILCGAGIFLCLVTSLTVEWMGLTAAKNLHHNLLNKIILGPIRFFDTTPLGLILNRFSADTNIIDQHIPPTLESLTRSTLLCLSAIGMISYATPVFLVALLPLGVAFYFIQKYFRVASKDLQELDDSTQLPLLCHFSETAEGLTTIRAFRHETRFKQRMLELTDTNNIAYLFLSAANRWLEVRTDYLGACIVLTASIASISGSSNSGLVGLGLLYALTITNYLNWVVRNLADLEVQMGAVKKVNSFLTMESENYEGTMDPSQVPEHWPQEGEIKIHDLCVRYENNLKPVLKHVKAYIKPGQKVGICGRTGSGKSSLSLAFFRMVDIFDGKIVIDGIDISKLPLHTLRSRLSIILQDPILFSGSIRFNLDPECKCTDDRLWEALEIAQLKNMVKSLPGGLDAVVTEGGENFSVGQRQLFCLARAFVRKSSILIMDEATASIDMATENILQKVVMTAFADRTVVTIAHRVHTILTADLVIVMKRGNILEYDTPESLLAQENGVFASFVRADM
T1 sequence (Q15842 whole entry partner, species assumed): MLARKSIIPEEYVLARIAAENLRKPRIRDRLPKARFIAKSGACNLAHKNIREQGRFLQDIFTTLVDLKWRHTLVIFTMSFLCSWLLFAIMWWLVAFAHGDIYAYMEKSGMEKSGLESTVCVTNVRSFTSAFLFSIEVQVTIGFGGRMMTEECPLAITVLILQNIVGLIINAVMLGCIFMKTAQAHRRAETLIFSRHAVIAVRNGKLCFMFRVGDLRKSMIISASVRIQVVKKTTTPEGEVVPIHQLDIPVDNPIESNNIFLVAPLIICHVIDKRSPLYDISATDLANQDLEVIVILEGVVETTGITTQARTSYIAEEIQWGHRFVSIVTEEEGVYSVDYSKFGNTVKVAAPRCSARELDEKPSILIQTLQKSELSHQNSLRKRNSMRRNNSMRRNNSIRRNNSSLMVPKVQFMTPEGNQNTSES

Row | Structure (SMILES) | IC50 [1, 4] | IC50 [1, 5] | Effect on Kir6.2/SUR1 channel activity [2] | IC50 [2] | IC50 Kir6.2/SUR1, ATP depletion [2] | IC50 Kir6.2/SUR1, VU0071063 activation [2] | Inhibition of Kir6.1/SUR2B whole-cell current [3]
1 | O=C(NCC(O)(c1ccccc1)C(F)(F)F)c1ccc(OC(F)(F)F)cc1 (stereo not shown) [VU0543336, N-(3,3,3-trifluoro-2-hydroxy-2-phenylpropyl)-4-(trifluoromethoxy)benzamide] | 126 nM and 100 nM | 271 nM and 300 nM | no apparent inhibitory activity; also recorded: no effect | > 30000 nM | no fit | no fit | complete KATP channel inhibition
2 | O=C(NCc1cc(-c2ccncc2)n(C2CCCC2)n1)Nc1cccs1 [VU0544086, 1-((1-cyclopentyl-5-(pyridin-4-yl)-1 H-pyrazol-3-yl)methyl)-3-(thiophen-2-yl)urea] | 1000 nM | 1000 nM | no apparent inhibitory activity; also recorded: no effect | > 30000 nM | no fit | no fit | complete KATP channel inhibition
3 | O=C1c2oc3ccccc3c(=O)c2C(c2cccc(Br)c2)N1CCO (stereo not shown) [VU0605768, 1-(3-bromophenyl)-2-(2-hydroxyethyl)-1,2-dihydrochromeno[2,3-c]pyrrole-3,9-dione] | 779 nM | 479 nM | no apparent inhibitory activity; also recorded: no effect | > 30000 nM | no fit | no fit | complete KATP channel inhibition
4 | c1ccc2[nH]c(CSc3ncnc4c3oc3ccccc34)nc2c1 [VU0212387, 4-(((1 H-benzo[d]imidazol-2-yl)methyl)thio)benzofuro[3,2-d]pyrimidine] | 619 nM and 600 nM | 1400 nM | no apparent inhibitory activity; also recorded: no effect | > 30000 nM | no fit | no fit | complete KATP channel inhibition
